According to patent EP1598418A1, “STABILISED COMPOSITION FOR FLUORIMETRIC, COLORIMETRIC OR CHEMOLUMINESCENT ASSAYS, KITS CONTAINING SAME AND PRODUCTION METHOD THEREOF” (BIOTOOLS BIOTECHNOLOGICAL & MEDICAL LABORATORIES, S.A., priority 2003, dated 2004):

Assays:
Conditions in all cases: conserved at T 4 °C, vs fresh mixture
[1] = system: probes marked with biotin or digoxygenin groups; experiment: Synthesis of digoxygenin-marked probes with desiccated mixtures and molecular hybridisation test (Example 9)
[2] = system: Molecular Beacon (MB) probe; experiment: Real-time amplification with desiccated, stabilised reaction mixture with Molecular Beacon probe after storage (Example 3); assay type: biochemical, P. falciparum
TaqMan probes = experiment: Real-time amplification with desiccated, stabilised reaction mixture with TaqMan probes after storage (Example 2); assay type: biochemical, P. falciparum
FRET probes = experiment: Real-time amplification with desiccated, stabilised reaction mixture with FRET probes after storage (Example 1); assay type: biochemical, P. falciparum
[3] = system: nucleic acids immobilised in ELISA microplates; experiment: Amplification and colorimetric detection with stabilised nucleic acids immobilised in ELISA microplates (Example 10.1)
[4] = system: streptoavidin conjugated with HRP (Str-HRP) and anti-digoxygenin conjugated with alkaline phospatase (anti-DIG-AP); experiment: Colorimetric ELISA plate activity test of desiccated, stabilised conjugates (Example 8); assay type: biochemical, HPV 16
Procedure: In 0.2 ml amplification tubes were added 100 microlitres of a 1/250 dilution in a blocking solution of the conjugate Str-HRP (Biospa). In parallel, 0.2 ml phials were prepared in which 100 microlitres were added of a 1/250 dilution in a blocking solution of anti-DIG-AP (Sigma).
For the activity assay of the conjugate anti-DIG-AP an ELISA plate was used in which the dimples had been previously coated with streptoavidin. For the activity assay of conjugate Str-HRP a plate was used instead with dimples previously coated with anti-DIG antibodies. The amplified products were incubated in each plate to allow the immobilisation of the amplicons in the plate.

[5] = system: oligonucleotides chemically modified by including biotin and/or digoxygenin groups; experiment: Amplification with desiccated biotin/digoxygenin oligonucleotides and colorimetric ELISA plate assay (Example 7); assay type: biochemical, oncogenic HPV
Procedure: To do so, 4 oligonucleotides were designed that hybridised with the genome of region E6-E7 of oncogenic HPV species.
To do so, an ELISA microplate with a high-binding capacity to streptoavidin (Biospa) was activated following a standard fixing protocol. Then, after blocking the plate by incubation with gelatine, the amplified products of the stabilising mixtures 1, 2 and 3 described in Example 7.A were analysed by a colorimetry assay according to the following experimental process: • A.- Amplification products using an onligonucleotide marked with digoxygenin (mixture 1 in Example 7.A). The biotinated probe A11 was fixed to the plate and the amplified product was hybridised. […] The amplification product was fixed to the plate with the first biotinilate and then hybridised with the first A12 marked with digoxygenin.

antidigoxygenin antibody = experiment: Colorimetry assay of stabilised protein immobilised in ELISA microplates (Example 10.2); assay type: biochemical, HPV
Procedure: To do so each dimple was incubated with 1µg of antidigoxygenin antibody (Roche).
The amplified product was incubated for 30 minutes in the dimples with the antibody immobilised. The amplified products immobilised in the plate by the union of the digoxygenin group of the amplicons and the immobilised anti-digoxygenin group were analysed by a colorimetric assay. […] The colorimetric reaction was finally analysed by measuring absorption at 415 nm.

[6] = system: Anti-digoxygenin antibodies; experiment: Colorimetric assay of stabilised proteins immobilised in modified glasses (Example 10.4); assay type: biochemical, P. falciparum
Procedure: To test the possibility of stabilising proteins that have been previously immobilised in pre-treated glass supports, the usual format of microarray systems, two different alternatives were tested as in the previous experiment.
Approach 1. Stabilisation of supports with previously fixed protein. Anti-digoxygenin antibodies were fixed to glass supports pre-treated with aldehyde. To do so, in each support slide 1 microlitre spots were applied of the solution of each protein at a concentration of 30 ng/µl. The slides with the immobilised protein were then coated with a thin layer of each of the stabilising mixtures and then desiccated in a vacuum oven at 25°C and 50 mbar pressure.
(§1) Approach 2. Fixation to the slides of the protein pre-mixed with the stabilising mixtures. A mixture was prepared of each of the probes with the suitable volumes of the stabilising mixtures described in Table 1. Then the mixtures of protein were applied to the various slides with the fixing conditions indicated for each glass format.
(§2) To test the viability of each slide prepared, a colorimetric assay was performed with formation of precipitate products. To do so, the slides were washed for 5 minutes in PBS 1X at room temperature to eliminate the protective layer.

[7] = system: DTCS Quick Start Master Mix; experiment: Sequencing reaction with desiccated, stabilised mixture with fluorescent terminators after storage (Example 6); assay type: biochemical, human papillomavirus
Procedure: To test the possibility of gelling reaction mixtures for sequencing nucleic acids the CEQ 200 Dye Terminator Cycle Sequencing (DTCS) Quick Start Kit (Beckman Coulter) was employed, which uses a PCR sequencing system in a single tube by incorporating four different fluorescent terminators. The sequencing reactions were later analysed in a CEQ 2000 XL DNA Analysis System (Beckman Coulter) capillary electrophoresis automatic sequencing system.
Reaction mixtures were prepared containing 4 microlitres of DTCS Quick Start Master Mix, 1 microlitre of universal primer M13-17 and the suitable volume of each stabilising mixture shown in Table 1.
In parallel, in order to check the evolution of the activity of the desiccated and stabilised tubes, the same plasmid was sequenced using a fresh sequencing mixture in standard conditions. Finally, the sequencing reactions were analysed in the CEQ 200XL system following the supplier's instructions.

[8] = system: nucleic acids immobilised in modified glasses; experiment: Colorimetric assay of stabilised nucleic acids immobilised in modified glasses (Example 10.3); assay type: biochemical, HPV 16
Procedure: Approach 1. Stabilisation of supports with previously fixed nucleic acids. HPV specific probes were fixed to glass supports pre-treated with polylysiun, aldehyde, epoxy, superepoxy and silane. To do so, in each support slide 1 microlitre spots were applied of the solution of each oligonucleotide at a concentration of 20 µM in the conditions indicated for each glass format. The slides with the immobilised oligonucleotides were then coated with a thin layer of each of the stabilising mixtures and then desiccated in a vacuum oven at 25°C and 50 mbar pressure.
as §1, with “the nucleic acids” for “the protein”, “of oligonucleotides” for “of protein”
as §2, with “layer. Then the slides were incubated in the presence of an amplified and previously denatured HPV 16 product using the probes A11 and A12.” for “layer.”

[9] = system: reaction mixture with SYBR Green; experiment: Real-time amplification with desiccated, stabilised reaction mixture with SYBR Green after storage (Example 5); assay type: biochemical, oncogenic papillomaviruses
Procedure: To test the efficiency of intercalated fluorophores such as SYBR Green included in desiccated and stabilised reaction mixtures, reaction mixtures were prepared for amplifying a 250 bp fragment corresponding to region E6-E7 of oncogenic papillomaviruses, using the same reagents as described in Example 1. In this case the unit "DNA Engine OPTICON™ 2 System" (MJ Research) was used. […] Also to each phial was added […] of SYBR Green 1 (Molecular probes).
Various tubes were prepared as described above, adding to each the suitable volume of each stabilising mixture shown in Table 1.
In parallel, in order to check the evolution of the activity of the desiccated tubes, DNA samples were amplified using a fresh mixture in the same amplification conditions.
The result of the amplification reaction was analysed in every case by inspecting the fluorescence curve and determining the crossing point, following the instructions of the equipment software, for each reaction tube both fresh and desiccated and stabilised. […] The samples of patients infected with oncogenic HPV gave positive results in every case, while patients infected with non-oncogenic HPV, or not infected with HPV, gave negative results in every case.

Scorpion probes = experiment: Real-time amplification with desiccated, stabilised reaction mixture with Scorpion probes after storage (Example 4); assay type: biochemical, M. tuberculosis

Structure (SMILES) | activity of stabilising mixtures [1] | activity of stabilising mixtures [2] | activity of stabilising mixtures (TaqMan probes) | activity of stabilising mixtures (FRET probes) | activity of stabilising mixtures [3] | activity of stabilising mixtures [4] | activity of stabilising mixtures [5] | activity of stabilising mixtures (antidigoxygenin antibody) | activity of stabilising mixtures [6] | activity of stabilising mixtures [7] | activity of stabilising mixtures [8] | activity of stabilising mixtures [9] | activity of stabilising mixtures (Scorpion probes)
OCC(O)CO [Glycerol] | ++ (++, positive with 50-90% of the activity of the fresh mixture) | ++ (++, positive with 50-90% of the activity of the fresh mixture) | ++ (++, positive with 50-90% of the activity of the fresh mixture) | ++ (++, positive with 50-90% of the activity of the fresh mixture) | ++ (++, positive with 50-90% of the activity of the fresh mixture) | ++ (++, positive with 50-90% of the activity of the fresh mixture) | ++ (++, positive with 50-90% of the activity of the fresh mixture) | ++ (++, positive with 50-90% of the activity of the fresh mixture) | ++ (++, positive with 50-90% of the activity of the fresh mixture) | ++ (++, positive with 50-90% of the activity of the fresh mixture) | ++ (++, positive with 50-90% of the activity of the fresh mixture) |  | 
NCCCC[C@H](N)C(=O)O [Lysine] | + (+, weak positive, under 50% of the activity of the fresh mixture) | + (+, weak positive, under 50% of the activity of the fresh mixture) | + (+, weak positive, under 50% of the activity of the fresh mixture) | + (+, weak positive, under 50% of the activity of the fresh mixture) | + (+, weak positive, under 50% of the activity of the fresh mixture) | + (+, weak positive, under 50% of the activity of the fresh mixture) | + (+, weak positive, under 50% of the activity of the fresh mixture) | + (+, weak positive, under 50% of the activity of the fresh mixture) | + (+, weak positive, under 50% of the activity of the fresh mixture) | + (+, weak positive, under 50% of the activity of the fresh mixture) | + (+, weak positive, under 50% of the activity of the fresh mixture) | + (+, weak positive, under 50% of the activity of the fresh mixture) | + (+, weak positive, under 50% of the activity of the fresh mixture)
OC[C@H]1O[C@@](CO)(O[C@H]2O[C@H](CO)[C@@H](O)[C@H](O)[C@H]2O)[C@@H](O[C@H]2O[C@H](CO)[C@@H](O)[C@H](O)[C@H]2O)[C@@H]1O [Melezitose] | + (+, weak positive, under 50% of the activity of the fresh mixture) | + (+, weak positive, under 50% of the activity of the fresh mixture) | + (+, weak positive, under 50% of the activity of the fresh mixture) | + (+, weak positive, under 50% of the activity of the fresh mixture) | + (+, weak positive, under 50% of the activity of the fresh mixture) | + (+, weak positive, under 50% of the activity of the fresh mixture) | + (+, weak positive, under 50% of the activity of the fresh mixture) | + (+, weak positive, under 50% of the activity of the fresh mixture) | + (+, weak positive, under 50% of the activity of the fresh mixture) | + (+, weak positive, under 50% of the activity of the fresh mixture) | + (+, weak positive, under 50% of the activity of the fresh mixture) | + (+, weak positive, under 50% of the activity of the fresh mixture) | + (+, weak positive, under 50% of the activity of the fresh mixture)
OC[C@@H](O)[C@@H](O)[C@H](O)[C@@H](O)CO [Sorbitol] | ++ (++, positive with 50-90% of the activity of the fresh mixture) | ++ (++, positive with 50-90% of the activity of the fresh mixture) | ++ (++, positive with 50-90% of the activity of the fresh mixture) | ++ (++, positive with 50-90% of the activity of the fresh mixture) | ++ (++, positive with 50-90% of the activity of the fresh mixture) | ++ (++, positive with 50-90% of the activity of the fresh mixture) | ++ (++, positive with 50-90% of the activity of the fresh mixture) | ++ (++, positive with 50-90% of the activity of the fresh mixture) | ++ (++, positive with 50-90% of the activity of the fresh mixture) | ++ (++, positive with 50-90% of the activity of the fresh mixture) | ++ (++, positive with 50-90% of the activity of the fresh mixture) |  | 
